From ChEMBL document CHEMBL5500366, “Discovery of the small molecular inhibitors against sclerostin loop3 as potential anti-osteoporosis agents by structural based virtual screening and molecular design” (Eur J Med Chem, 2024)
The source made the active and inactive calls. The rule behind the calls is not given here.

Assays:
[1] = molecular target: T1, Sclerostin (Homo sapiens, UniProt Q9BQB4); assay: Binding affinity to SOST (unknown origin) by SPR analysis
T1 sequence (Q9BQB4 whole entry): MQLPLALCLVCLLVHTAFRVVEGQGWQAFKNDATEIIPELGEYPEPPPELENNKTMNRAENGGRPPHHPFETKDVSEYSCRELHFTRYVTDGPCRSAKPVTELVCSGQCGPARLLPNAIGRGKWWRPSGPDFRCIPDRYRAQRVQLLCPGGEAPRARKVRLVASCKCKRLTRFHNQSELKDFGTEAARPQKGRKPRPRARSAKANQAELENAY

[2] = molecular target: T1, Sclerostin; assay: Binding affinity to SOST loop2 (unknown origin) by SPR analysis
[3] = Half-life in sc dosed Sprague-Dawley rat; format: ADME, organism-based; conditions: in vivo
[4] = species on record: Homo sapiens; assay: Binding affinity to FABP (unknown origin)
[5] = AUC in sc dosed Sprague-Dawley rat; format: ADME, organism-based; conditions: in vivo
[6] = molecular target: Albumin (Homo sapiens, UniProt P02768); assay: Binding affinity to human serum albumin; format: ADME; conditions: isolated protein
[7] = Cmax in sc dosed Sprague-Dawley rat; format: ADME, organism-based; conditions: in vivo
[8] = molecular target: T1, Sclerostin; assay: Binding affinity to SOST loop3 (unknown origin) by SPR analysis

Albumin, sequence (P02768 whole entry): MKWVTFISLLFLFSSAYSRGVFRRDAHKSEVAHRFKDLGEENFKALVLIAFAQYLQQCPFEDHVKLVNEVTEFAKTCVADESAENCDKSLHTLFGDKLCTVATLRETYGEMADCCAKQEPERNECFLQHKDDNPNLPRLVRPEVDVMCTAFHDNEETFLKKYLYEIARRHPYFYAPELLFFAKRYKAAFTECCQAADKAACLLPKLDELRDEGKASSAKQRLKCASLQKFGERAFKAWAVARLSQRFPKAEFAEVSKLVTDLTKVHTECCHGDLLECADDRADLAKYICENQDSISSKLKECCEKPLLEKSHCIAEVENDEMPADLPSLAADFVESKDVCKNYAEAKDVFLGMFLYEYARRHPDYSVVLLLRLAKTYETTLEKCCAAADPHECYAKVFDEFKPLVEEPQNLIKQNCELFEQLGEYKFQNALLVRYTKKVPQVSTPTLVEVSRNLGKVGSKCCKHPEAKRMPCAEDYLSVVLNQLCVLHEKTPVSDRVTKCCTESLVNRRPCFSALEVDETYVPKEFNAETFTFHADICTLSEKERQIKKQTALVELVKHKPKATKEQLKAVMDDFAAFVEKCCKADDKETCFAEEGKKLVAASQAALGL

O=C1c2c(O)cc(O)cc2O[C@@H](c2cc(O)c(O)c(O)c2)[C@H]1O
Kd [1]: 4780 nM | Kd [2]: 3900 nM

CC(=O)NCC#Cc1ccc(C(=O)NCC(=O)O)cc1
half-life [3]: 1.94 h | Activity [4]: inactive | AUC [5]: 59.2 ng·h/mL | Activity [6]: Not Active | Cmax [7]: 5.81 ng/mL

O=c1ccc2ccccc2o1 [COUMARIN]
Kd [1]: 273 nM | Kd [2]: 231 nM

Oc1cc(O)c2c(c1)O[C@H](c1ccc(O)c(O)c1)[C@@H](O)C2 [CIANIDANOL]
Kd [1]: 1580 nM | Kd [2]: 1840 nM

O=C1c2c(O)cc(O)cc2O[C@@H](c2ccc(O)c(O)c2)[C@H]1O [(+)-EPITAXIFOLIN]
Kd [1]: 2630 nM

Nc1nc2c(c(=O)[nH]1)NC(CNc1ccc(C(=O)N[C@@H](CCC(=O)O)C(=O)O)cc1)CN2 (some centres undefined)
Kd [1]: 37.7 nM | Kd [8]: 42.4 nM
